Test results as given in US11220482B2, “Aminopyridinemethanol compounds and their use” (UNIVERSITE AMIENS PICARDIE JULES VERNE, priority 2017, dated 2022).
Like-named read-outs stand apart in the source and are kept apart here.

What was measured:
[1] = tested on: Plasmodium falciparum 3D7; test: Plasmodium falciparum susceptibility assay, first round (SYBR Green I); type: cell-based; conditions: 3D7, first round, 48-h incubation, strain susceptible to CQ, decreased susceptibility to MQ, read-out: IC50 (nM) Plasmodium falciparum 3D7 (converted)
CHO-K1 cells [2] = conditions: Chinese hamster, 24 h
Description: All the assays were conducted in duplicate. The CHO-K1 cells, suspended in Mac Coy's 5A medium, were transferred into Labteck wells at a concentration of 100,000 cells/mL, and incubated for 24 hours at 37° C. in CO2 (5%).
The test was performed without metabolic activation: the test substances were added into cell cultures at concentrations previously defined. […] After 24 hours of incubation at 37° C. in CO2 (5%), the culture medium was removed, the cells were rinsed with phosphate buffered saline (PBS), and then returned in culture medium containing […] of cytochalasine B. After a 24-hour incubation period at 37° C., cells were rinsed with phosphate buffered saline (PBS), fixed with methanol and stained with 10% Giemsa for 20 minutes.
(§1) The analysis of results was performed under a microscope at ×1000 magnification. The antiproliferative activity of test substances was estimated by counting the number of binucleated cells relative to the number of mononucleated cells on a total of 500 cells for each dose (250 cells counted per well). The proliferation index (Cytokinesis Blocked Proliferative Index CBPI) was calculated using the following formula:
(§2) The cytostasis index (CI %), i.e. the percentage of cell replication inhibition, was calculated using the following formula: CI %−100−{100×(CBPItest material−1)/(CBPIsolvent control−1)}
(§3) The rates of micronuclei were evaluated for the presence of independent nuclear core entities in 1000 binucleated cells per well, which corresponds to 2000 cells examined by test substance dose. Micronuclei were identified as small nuclei well differentiated from cell nucleus, stained in the same manner and having a diameter less than one third of that of the cell nucleus.
(§4) Micronuclei rates obtained for different doses of test substances were compared to the negative control by a χ2 test. The assay was considered positive if: • A dose-response relationship was obtained between the rate of micronuclei and the doses tested, • At least one of these doses induced a statistically significant increase (P<0.05) in the number of micronucleated cells as compared to the negative control.

CHO-K1 cells [3] = test: In vitro micronucleus assay, short-term exposure
Description: All the assays were conducted in duplicate. The CHO-K1 cells, suspended in McCoy's 5A medium, were transferred into Labteck wells at a concentration of 100,000 cells/mL, and incubated for 24 hours at 37° C. in CO2 (5%).
When the test was performed without metabolic activation, the test substances were added into cell cultures at concentrations previously defined.
When the assay was performed in the presence of metabolic activation, S9 mix metabolizing mixture was added to cell cultures at a concentration of 10%. Then the test substances were added to the cell cultures at concentrations previously defined.
After 3 hours of incubation at 37° C. in CO2 (5%), the culture medium was removed, the cells were rinsed with phosphate buffered saline (PBS), and then returned to culture in McCoy's 5A medium containing […] of cytochalasin B. After a 21-hour incubation period at 37° C., cells were rinsed with phosphate buffered saline (PBS), fixed with methanol and stained with 10% Giemsa for 20 minutes.
as §1, §2, §3, §4

S. typhimurium TA98 = test: Bacterial reverse mutation assay (Ames test)
Salmonella strains = test: Bacterial reverse mutation assay (Ames test), overall conclusion; type: cell-based, S. typhimurium; conditions: all tested doses, absence or presence of the metabolizing mixture
Description: Five strains of S. typhimurium were used. […] An additional strain has been chosen to detect cross-linking mutagens, hydrazines and oxidative agents: TA102, which have an AT base pair at the primary reversion site. Salmonella tester strains were gifts from Prof. B. N. Ames (Berkeley, Calif., USA). They were stored at −80° C. and regularly checked for genetic markers.
Few crystals of the frozen working strains were taken with a sterile pipette, and seeded in 10 mL of nutrient broth (NB No 2, Oxoid). Strains were grown overnight at 37° C. with shaking in Nutrient Broth No. 2, with ampicillin (25 μg/mL) for TA1535, TA97a, TA98, and TA 100, or ampicillin (25 μg/mL) plus tetracyclin (2 μg/mL) for TA 102. At the end of the incubation period, 0.1 mL of each overnight culture was mixed to 0.1 mL S9 Mix or 0.1 mL phosphate-buffered saline (PBS, pH 7.4) in 5 mL plastic tubes and various volumes of the tested samples were added to the mixtures. Each experiment included triplicate plates of four tested doses. A solvent (DMSO, 10 μL) control was added to determine the spontaneous frequency of revertants (quadruple plates). Five positive controls were also included to ensure the performance of the tester strains and the S9 Mix. […] After hardening, the plates were incubated at 37° C. for 48 hours.
At the end of the incubation period, revertants were counted with a laser colony counter equipped with a bacterial enumeration program (Spiral System Instrument Inc., Bethesda, Md., USA).
The Dunnett test was performed to determine a significant difference between the mean number of induced revertants and the mean number of spontaneous revertants.

Plasmodium falciparum W2 = test: Plasmodium falciparum susceptibility assay, first round (SYBR Green I); type: cell-based; conditions: W2, first round, 48-h incubation, strain resistant to CQ, sensitive to MQ, read-out: IC50 (nM) Plasmodium falciparum W2 (converted)

COC[C@H](Cc1ccccc1)NC[C@@H](O)c1cc(-c2ccc(C(F)(F)F)cc2)nc(C(F)(F)F)c1 [Compound 1i, (S)-2-(((S)-1-Methoxy-3-phenylpropan-2-yl)amino)-1-(2-(trifluoromethyl)-6-(4-(trifluoromethyl)phenyl)pyridin-4-yl)ethanol]
IC50 [1]: 28.3 ± 1.5 nM
Number of revertants by plate (Means ± SD), TA97a (S. typhimurium TA97a; with S9 mix, 0.4 μg/plate): 132 ± 11^NS
Number of revertants by plate (Means ± SD), TA97a (S. typhimurium TA97a; with S9 mix, 0.6 μg/plate): 137 ± 2^NS
Number of revertants by plate (Means ± SD), TA97a (S. typhimurium TA97a; with S9 mix, 0.8 μg/plate): 127 ± 9^NS
Number of revertants by plate (Means ± SD), TA97a (S. typhimurium TA97a; with S9 mix, 1 μg/plate): 124 ± 4^NS
Number of revertants by plate (Means ± SD), TA97a (S. typhimurium TA97a; without S9 mix, 0.4 μg/plate): 153 ± 5^NS
Number of revertants by plate (Means ± SD), TA97a (S. typhimurium TA97a; without S9 mix, 0.6 μg/plate): 163 ± 4^NS
Number of revertants by plate (Means ± SD), TA97a (S. typhimurium TA97a; without S9 mix, 0.8 μg/plate): 164 ± 5^NS
Number of revertants by plate (Means ± SD), TA97a (S. typhimurium TA97a; without S9 mix, 1 μg/plate): 144 ± 11^NS
Number of revertants by plate (Means ± SD), TA100 (S. typhimurium TA100; with S9 mix, 0.4 μg/plate): 191 ± 11^NS
Number of revertants by plate (Means ± SD), TA100 (S. typhimurium TA100; with S9 mix, 0.6 μg/plate): 173 ± 10^NS
Number of revertants by plate (Means ± SD), TA100 (S. typhimurium TA100; with S9 mix, 0.8 μg/plate): 182 ± 10^NS
Number of revertants by plate (Means ± SD), TA100 (S. typhimurium TA100; with S9 mix, 1 μg/plate): 174 ± 10^NS
Number of revertants by plate (Means ± SD), TA100 (S. typhimurium TA100; without S9 mix, 0.4 μg/plate): 200 ± 7^NS
Number of revertants by plate (Means ± SD), TA100 (S. typhimurium TA100; without S9 mix, 0.6 μg/plate): 199 ± 10^NS
Number of revertants by plate (Means ± SD), TA100 (S. typhimurium TA100; without S9 mix, 0.8 μg/plate): 209 ± 17^NS
Number of revertants by plate (Means ± SD), TA100 (S. typhimurium TA100; without S9 mix, 1 μg/plate): 205 ± 21^NS
BI (binucleated cells) (CHO-K1 cells [2]; 5 μM): 402
CBPI (Cytokinesis-Blocked Proliferative Index) (CHO-K1 cells [2]; 5 μM): 1.81
CI % (cytostasis index) (CHO-K1 cells [2]; 5 μM): 13%
MNC1 (micronucleated cell rate) (CHO-K1 cells [2]; 5 μM): 9 ‰
MNC2 (micronucleated cell rate) (CHO-K1 cells [2]; 5 μM): 11 ‰
MNC-M (mean of micronucleated cell rates) (CHO-K1 cells [2]; 5 μM): 10 ± 1.4 ‰
MONO (mononucleated cells) (CHO-K1 cells [2]; 5 μM): 98
BI (binucleated cells) (CHO-K1 cells [2]; 10 μM): 308
CBPI (Cytokinesis-Blocked Proliferative Index) (CHO-K1 cells [2]; 10 μM): 1.62
CI % (cytostasis index) (CHO-K1 cells [2]; 10 μM): 34%
MNC1 (micronucleated cell rate) (CHO-K1 cells [2]; 10 μM): 10 ‰
MNC2 (micronucleated cell rate) (CHO-K1 cells [2]; 10 μM): 12 ‰
MNC-M (mean of micronucleated cell rates) (CHO-K1 cells [2]; 10 μM): 11 ± 1.4 ‰
MONO (mononucleated cells) (CHO-K1 cells [2]; 10 μM): 192
BI (binucleated cells) (CHO-K1 cells [2]; 50 μM): 214
CBPI (Cytokinesis-Blocked Proliferative Index) (CHO-K1 cells [2]; 50 μM): 1.42
CI % (cytostasis index) (CHO-K1 cells [2]; 50 μM): 57%
MNC1 (micronucleated cell rate) (CHO-K1 cells [2]; 50 μM): 11 ‰
MNC2 (micronucleated cell rate) (CHO-K1 cells [2]; 50 μM): 9 ‰
MNC-M (mean of micronucleated cell rates) (CHO-K1 cells [2]; 50 μM): 10 ± 1.4 ‰
MONO (mononucleated cells) (CHO-K1 cells [2]; 50 μM): 286
in vitro micronucleus assay result (clastogenic and/or aneugenic activities) (CHO-K1 cells [3]): negative results
Number of revertants by plate (Means ± SD), TA102 (S. typhimurium TA102; with S9 mix, 0.4 μg/plate): 351 ± 6^NS
Number of revertants by plate (Means ± SD), TA102 (S. typhimurium TA102; with S9 mix, 0.6 μg/plate): 355 ± 16^NS
Number of revertants by plate (Means ± SD), TA102 (S. typhimurium TA102; with S9 mix, 0.8 μg/plate): 376 ± 10^NS
Number of revertants by plate (Means ± SD), TA102 (S. typhimurium TA102; with S9 mix, 1 μg/plate): 362 ± 4^NS
Number of revertants by plate (Means ± SD), TA102 (S. typhimurium TA102; without S9 mix, 0.4 μg/plate): 332 ± 19^NS
Number of revertants by plate (Means ± SD), TA102 (S. typhimurium TA102; without S9 mix, 0.6 μg/plate): 293 ± 4^NS
Number of revertants by plate (Means ± SD), TA102 (S. typhimurium TA102; without S9 mix, 0.8 μg/plate): 328 ± 14^NS
Number of revertants by plate (Means ± SD), TA102 (S. typhimurium TA102; without S9 mix, 1 μg/plate): 347 ± 11^NS
Number of revertants by plate (Means ± SD), TA98 (S. typhimurium TA98; with S9 mix, 0.4 μg/plate): 24 ± 2^NS
Number of revertants by plate (Means ± SD), TA98 (S. typhimurium TA98; with S9 mix, 0.6 μg/plate): 18 ± 3^NS
Number of revertants by plate (Means ± SD), TA98 (S. typhimurium TA98; with S9 mix, 0.8 μg/plate): 17 ± 1^NS
Number of revertants by plate (Means ± SD), TA98 (S. typhimurium TA98; with S9 mix, 1 μg/plate): 20 ± 2^NS
Number of revertants by plate (Means ± SD), TA98 (S. typhimurium TA98; without S9 mix, 0.4 μg/plate): 32 ± 3^NS
Number of revertants by plate (Means ± SD), TA98 (S. typhimurium TA98; without S9 mix, 0.6 μg/plate): 33 ± 3^NS
Number of revertants by plate (Means ± SD), TA98 (S. typhimurium TA98; without S9 mix, 0.8 μg/plate): 33 ± 3^NS
Number of revertants by plate (Means ± SD), TA98 (S. typhimurium TA98; without S9 mix, 1 μg/plate): 34 ± 7^NS
mutagenic activity in Salmonella strains (revertant rates) (Salmonella strains): No significant increase in revertant rates
IC50 (Plasmodium falciparum W2): 28.8 ± 3.8 nM
Number of revertants by plate (Means ± SD), TA1535 (S. typhimurium TA1535; with S9 mix, 0.4 μg/plate): 23 ± 6^NS
Number of revertants by plate (Means ± SD), TA1535 (S. typhimurium TA1535; with S9 mix, 0.6 μg/plate): 29 ± 4^NS
Number of revertants by plate (Means ± SD), TA1535 (S. typhimurium TA1535; with S9 mix, 0.8 μg/plate): 27 ± 5^NS
Number of revertants by plate (Means ± SD), TA1535 (S. typhimurium TA1535; with S9 mix, 1 μg/plate): 29 ± 9^NS
Number of revertants by plate (Means ± SD), TA1535 (S. typhimurium TA1535; without S9 mix, 0.4 μg/plate): 22 ± 4^NS
Number of revertants by plate (Means ± SD), TA1535 (S. typhimurium TA1535; without S9 mix, 0.6 μg/plate): 29 ± 6^NS
Number of revertants by plate (Means ± SD), TA1535 (S. typhimurium TA1535; without S9 mix, 0.8 μg/plate): 28 ± 5^NS
Number of revertants by plate (Means ± SD), TA1535 (S. typhimurium TA1535; without S9 mix, 1 μg/plate): 20 ± 4^NS
